Laboratory results taken from patent US20180161310A1, “COMPOUNDS AND METHODS FOR THE TREATMENT OF NEUROLOGICAL DISORDERS” (Teleos Therapeutics, LLC, priority 2016, published 2018).
Where “and” joins values, the source holds several entries; their conditions need not be identical. Identical values can stand only once. Like-named read-outs stand apart in the source and are kept apart here.

Key:
[1] = system: mouse maximal electroshock (MES) model; experiment: Mouse maximal electroshock (MES) model; type: in vivo; settings: animals protected from seizures / number tested
Method: (§1) TT0023831 and TT0042607 were tested in mammalian models of epilepsy. The two compounds were tested in the mouse 6 Hz 44 mA model and the mouse maximal electroshock (MES) model. A range of doses was examined, and results were reported as the number of animals protected from seizures out of the number tested (Table 5).

[2] = system: VU0463271-induced phenotype (KCC2 inhibition) in zebrafish larvae; experiment: animal or person; settings: for suppression score dose response compared with other compounds as suppressor of the hyperexcitability phenotype: zebrafish, FIG. 8 / FIG. 10
Method: To quantify the ability of the same drugs to reverse (or “rescue”) the phenotype caused by either 2.5 μM VU0463271 or 5 μM VU0240551, a rescue score between 0 (no rescue) and 1 (maximal theoretical rescue) was calculated (FIG. 2C). A rescue score incorporates and quantifies the degree of phenotypic reversal and the level of sedation in each concentration tested (see Materials and Methods below).
A diverse collection of 37,000 uncharacterized small molecules were used in a suppressor screen against either 2.5 μM VU0463271 (27,000 compounds) or 5 μM VU0240551 (10,000 compounds), along with 3,700 control wells treated with DMSO alone and 3,700 control wells treated with the KCC2 inhibitor. Each well of a 96-well plate containing at least about 8 zebrafish larvae was treated with a library compound or DMSO followed by treatment with the KCC2 inhibitor. Behavioral profiles pre- and post-treatment with the KCC2 inhibitor were evaluated using the behavioral assay battery described herein, and a detailed quantitative readout of about 15,000 time points was generated for each well. These behavioral profiles were used to calculate a screening score for each library compound, which incorporates and quantifies the rescue score and sedation index (see Materials and Methods).
In some cases, small molecules that alter the KCC2 inhibition phenotype may reverse the behavioral phenotype back to the normal, but could also elicit a new undesired phenotype, which is different from a normal behavior. To discriminate between these possibilities, vector algebra was used to compare each behavioral profile to the behavioral profile of DMSO-treated larvae and defined a value for the phenotypic distance from DMSO. The screen score of each compound was then plotted against its averaged phenotypic distance from DMSO (FIG. 3A) and MI (FIG. 3B) to filter out compounds that elicit a profile that is very different from the control one and compounds that reduce overall activity, respectively.
The reproducibility of the effects and the active concentration ranges of the 30 hits selected, as described above, were determined. Their rescue efficacies were retested in at least six concentrations and their rescue scores were also recalculated.
TT0023831 and six analogs were tested at a range of doses from 2.5-320 uM in a behavioral assay designed to assess the ability of compounds to suppress the effects of KCC2 inhibition. The graphs of FIG. 11 indicate the degree of suppression of the KCC2-inhibited phenotype, where a score of 1 represents complete restoration of KCC2-treated zebrafish to normal. […] Table 4 summarizes the estimated EC50 values and peak effect values for each compound.
A large number of fertilized zebrafish eggs (up to 20,000 embryos per day) were collected from group matings of wild type Ekkwill/Singapore zebrafish. Embryos were raised in hatching jars at 28° C. on a 14/10 hour light/dark cycle until 3 days post fertilization (dpf), then transferred to an incubator under the same conditions until 7 dpf. Groups of eight larvae (7 dpf) were distributed into the wells of a clear flat bottom square well 96-well plates filled with E3 medium (300 μl). Larvae were then incubated at 25° C. on the bench top for one-hour chemical treatment and subsequent experiments.
A library containing 37,000 uncharacterized small molecules was purchased from Life Chemicals and dissolved in DMSO at a stock concentration of 10 mM.

[3] = system: mouse 6 Hz 44 mA model; experiment: Mouse 6 Hz 44 mA model of epilepsy; type: in vivo; settings: animals protected from seizures / number tested
Method: as §1

[4] = system: PTZ-induced behavior in zebrafish larvae; experiment: Suppression of PTZ-induced behavior in zebrafish larvae; type: in vivo; settings: pre-treatment with 6 concentrations, then 5 mM PTZ
Method: Differences between behavioral profiles of larval zebrafish treated with KCC2 inhibitors and larval zebrafish treated with PTZ were investigated by evaluating the ability of traditional anti-seizure drugs to reverse their effects. Five drugs in at least six concentrations (by allocating 12 wells per concentration) were tested. These drugs included a benzodiazepine anxiolytic (diazepam), two AEDs that increase GABA levels in the synapse (tiagabine and valproate), a sodium channel blocker (phenytoin) and a synthetic neurosteroid GABAA positive allosteric modulator (PAM, ganaxolone).

[5] = system: cultured rat hippocampal neurons; experiment: Gramicidin perforated patch clamp in cultured hippocampal neurons; type: cell-based
Method: Referring to FIG. 9, representative IV curves were generated (current-voltage curves) to characterise the intrinsic excitability of TT0023831 and TT0042607 in gramicidin perforated patch clamp studies, and to investigate whether the effects of the three hit compounds identified in the above-described suppressor screens translate to rodent models. The effects of these compounds were evaluated in cultured rat hippocampal neurons using the gramicidin perforated patch technique. The GABAA agonist, muscimol (1 μM), was used to measure EGABA values under basal conditions (FIG. 9). Perfusion of 30 μM TT0011235 potentiated GABAA-mediated currents, both muscimol-activated and endogenous post-synaptic potentials, and shifted the EGABA values (FIG. 9 and Appendix B). […] Treatment with 30 μM TT0042607 slowed the upstroke and repolarization, reduced the input resistant and thus, and reduced the number of open channels.

[6] = molecular target: Nav1.1 (Homo sapiens, UniProt P35498)
[7] = molecular target: Nav1.2 (Homo sapiens, UniProt Q99250)
Sequence of Nav1.2 (Q99250 whole entry): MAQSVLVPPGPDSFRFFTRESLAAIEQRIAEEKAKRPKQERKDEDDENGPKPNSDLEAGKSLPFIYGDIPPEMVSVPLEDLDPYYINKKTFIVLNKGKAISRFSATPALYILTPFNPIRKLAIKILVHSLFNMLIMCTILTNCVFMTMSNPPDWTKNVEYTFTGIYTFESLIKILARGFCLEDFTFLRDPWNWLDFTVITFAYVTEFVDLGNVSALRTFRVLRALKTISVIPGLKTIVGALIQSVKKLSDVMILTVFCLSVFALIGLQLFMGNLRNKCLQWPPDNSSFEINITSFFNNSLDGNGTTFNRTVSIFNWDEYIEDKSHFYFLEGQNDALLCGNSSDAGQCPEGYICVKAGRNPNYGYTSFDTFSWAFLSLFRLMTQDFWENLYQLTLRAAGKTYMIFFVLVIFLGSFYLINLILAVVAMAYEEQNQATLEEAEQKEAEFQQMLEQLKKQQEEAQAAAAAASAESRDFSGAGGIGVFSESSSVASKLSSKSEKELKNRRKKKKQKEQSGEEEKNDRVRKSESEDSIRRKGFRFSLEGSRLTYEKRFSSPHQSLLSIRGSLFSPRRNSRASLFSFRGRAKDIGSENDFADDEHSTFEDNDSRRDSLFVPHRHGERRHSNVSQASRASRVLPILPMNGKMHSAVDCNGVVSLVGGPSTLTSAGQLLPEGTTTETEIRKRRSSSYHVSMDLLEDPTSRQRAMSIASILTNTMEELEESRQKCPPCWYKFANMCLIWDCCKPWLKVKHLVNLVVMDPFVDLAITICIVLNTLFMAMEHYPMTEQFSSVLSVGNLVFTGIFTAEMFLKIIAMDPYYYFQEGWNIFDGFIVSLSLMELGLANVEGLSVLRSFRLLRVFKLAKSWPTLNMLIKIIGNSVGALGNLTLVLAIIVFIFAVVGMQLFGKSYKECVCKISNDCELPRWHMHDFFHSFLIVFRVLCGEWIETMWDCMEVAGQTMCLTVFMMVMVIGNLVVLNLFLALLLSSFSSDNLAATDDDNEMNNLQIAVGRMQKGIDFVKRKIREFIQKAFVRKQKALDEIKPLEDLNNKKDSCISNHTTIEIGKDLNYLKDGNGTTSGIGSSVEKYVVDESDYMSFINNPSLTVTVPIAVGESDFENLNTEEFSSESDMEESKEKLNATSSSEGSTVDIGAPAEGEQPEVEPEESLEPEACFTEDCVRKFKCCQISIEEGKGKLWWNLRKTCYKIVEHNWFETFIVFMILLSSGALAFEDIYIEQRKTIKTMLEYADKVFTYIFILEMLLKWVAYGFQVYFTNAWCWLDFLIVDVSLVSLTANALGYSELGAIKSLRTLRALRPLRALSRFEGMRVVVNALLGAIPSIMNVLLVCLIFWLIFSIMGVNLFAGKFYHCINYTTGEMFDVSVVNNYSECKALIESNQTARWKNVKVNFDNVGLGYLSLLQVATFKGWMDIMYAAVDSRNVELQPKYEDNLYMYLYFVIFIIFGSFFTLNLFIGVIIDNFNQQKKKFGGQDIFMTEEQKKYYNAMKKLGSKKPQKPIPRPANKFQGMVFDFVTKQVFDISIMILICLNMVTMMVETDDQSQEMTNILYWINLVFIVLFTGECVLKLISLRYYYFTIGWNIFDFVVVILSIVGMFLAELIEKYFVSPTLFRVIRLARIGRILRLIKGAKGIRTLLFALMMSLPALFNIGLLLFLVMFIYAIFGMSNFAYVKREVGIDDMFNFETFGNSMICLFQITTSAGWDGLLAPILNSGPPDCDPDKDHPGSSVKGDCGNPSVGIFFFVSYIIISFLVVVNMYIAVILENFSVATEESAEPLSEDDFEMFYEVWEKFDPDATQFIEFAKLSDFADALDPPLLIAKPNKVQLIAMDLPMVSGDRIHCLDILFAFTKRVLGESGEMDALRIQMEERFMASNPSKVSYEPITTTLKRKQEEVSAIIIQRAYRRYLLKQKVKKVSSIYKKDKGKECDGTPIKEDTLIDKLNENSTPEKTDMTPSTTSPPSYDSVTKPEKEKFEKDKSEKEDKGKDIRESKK

[8] = molecular target: Nav1.6 (Homo sapiens, UniProt Q9UQD0)
Sequence of Nav1.6 (Q9UQD0 whole entry): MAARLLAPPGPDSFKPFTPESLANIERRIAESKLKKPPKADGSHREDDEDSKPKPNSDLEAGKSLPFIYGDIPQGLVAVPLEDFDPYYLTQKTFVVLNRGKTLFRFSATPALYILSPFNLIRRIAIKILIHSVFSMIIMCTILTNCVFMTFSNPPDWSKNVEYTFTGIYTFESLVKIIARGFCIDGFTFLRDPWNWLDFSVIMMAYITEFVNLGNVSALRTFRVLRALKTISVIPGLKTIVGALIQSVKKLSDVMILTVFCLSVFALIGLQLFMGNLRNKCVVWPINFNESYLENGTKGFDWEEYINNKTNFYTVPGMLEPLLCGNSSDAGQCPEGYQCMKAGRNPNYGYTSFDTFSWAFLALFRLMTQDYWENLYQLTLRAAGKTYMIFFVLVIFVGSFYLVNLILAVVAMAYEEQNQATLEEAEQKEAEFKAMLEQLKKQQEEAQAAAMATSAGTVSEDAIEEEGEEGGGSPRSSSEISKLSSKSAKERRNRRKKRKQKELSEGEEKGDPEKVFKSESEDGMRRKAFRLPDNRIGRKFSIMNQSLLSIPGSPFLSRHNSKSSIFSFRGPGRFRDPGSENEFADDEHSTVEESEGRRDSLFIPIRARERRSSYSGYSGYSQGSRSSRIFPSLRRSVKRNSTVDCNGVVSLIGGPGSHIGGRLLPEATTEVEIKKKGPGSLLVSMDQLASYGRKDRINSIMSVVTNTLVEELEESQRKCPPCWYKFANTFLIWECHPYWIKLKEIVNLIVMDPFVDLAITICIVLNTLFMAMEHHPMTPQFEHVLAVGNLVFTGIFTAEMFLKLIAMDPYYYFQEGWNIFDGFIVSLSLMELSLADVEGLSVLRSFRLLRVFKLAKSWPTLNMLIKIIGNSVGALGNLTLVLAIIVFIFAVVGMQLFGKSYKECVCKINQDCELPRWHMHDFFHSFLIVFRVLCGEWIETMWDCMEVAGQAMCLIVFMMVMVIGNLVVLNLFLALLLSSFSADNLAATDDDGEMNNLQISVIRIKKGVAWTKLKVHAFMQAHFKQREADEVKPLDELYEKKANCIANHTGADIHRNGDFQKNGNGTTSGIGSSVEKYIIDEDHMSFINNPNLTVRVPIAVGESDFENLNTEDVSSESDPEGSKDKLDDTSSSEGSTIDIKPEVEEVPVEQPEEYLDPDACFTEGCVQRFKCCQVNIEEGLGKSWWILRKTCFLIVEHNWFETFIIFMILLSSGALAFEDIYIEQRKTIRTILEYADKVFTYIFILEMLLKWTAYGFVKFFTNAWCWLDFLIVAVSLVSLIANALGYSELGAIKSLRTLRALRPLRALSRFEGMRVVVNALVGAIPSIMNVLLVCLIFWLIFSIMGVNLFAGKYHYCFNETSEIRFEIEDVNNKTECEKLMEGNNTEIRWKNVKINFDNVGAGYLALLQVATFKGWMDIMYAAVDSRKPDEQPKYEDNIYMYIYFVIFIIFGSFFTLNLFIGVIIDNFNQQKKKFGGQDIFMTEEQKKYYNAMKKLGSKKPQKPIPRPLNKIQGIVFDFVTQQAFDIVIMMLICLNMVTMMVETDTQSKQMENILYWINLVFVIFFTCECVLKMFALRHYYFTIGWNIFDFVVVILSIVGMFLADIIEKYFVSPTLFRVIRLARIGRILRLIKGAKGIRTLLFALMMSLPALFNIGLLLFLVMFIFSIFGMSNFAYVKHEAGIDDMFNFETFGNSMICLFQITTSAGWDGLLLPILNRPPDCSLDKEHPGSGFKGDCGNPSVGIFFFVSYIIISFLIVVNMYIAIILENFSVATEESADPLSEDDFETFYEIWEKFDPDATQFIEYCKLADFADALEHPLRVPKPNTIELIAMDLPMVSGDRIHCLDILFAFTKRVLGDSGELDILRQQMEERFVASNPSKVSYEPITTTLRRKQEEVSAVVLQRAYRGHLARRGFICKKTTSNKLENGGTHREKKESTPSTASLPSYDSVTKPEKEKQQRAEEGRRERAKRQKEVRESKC

[9] = system: zebrafish larvae; type: in vivo; settings: 5 mM
From the text: In an effort to determine how pharmacological inhibition of KCC2 affects zebrafish behaviors, 7 days post-fertilization (dpf) zebrafish larvae can be treated with two analogs of the selective KCC2 inhibitor, VU0463271 and VU0240551, and their behavioral responses in a battery of behavioral assays can be assessed. These behavioral assays can include a series of visual and acoustic stimuli presented to larval zebrafish in various contexts and combinations to elicit robust and reproducible patterns of activity. For example, behavioral assays can include two acoustic-stimulus-response (ASR1 and ASR2) assays, six visual-stimulus-response (VSR1-VSR6) assays, and three assays that combine acoustic and visual stimulus responses (AVSR1-AVSR3). Together, such a battery of behavioral assays use six stimuli, including red light (600 nm), blue light (420 nm), violet light (405 nm), green light (525 nm), low-intensity sound (60 dB) and high-intensity sound (70 dB). Behavioral responses of the larval zebrafish can be measured by a motion index (MI) that quantifies the motor activity of at least about 8 zebrafish larvae in each well of a 96-well plate.
Referring to FIGS. 1A-1B, zebrafish behavioral profiles can include a battery of individual behavioral assays labeled ASR1, AVSR1, ASR2, VSR1, VSR2, VSR3, VSR4, AVSR2, VSR5, AVSR3, and VSR6, as described herein. These behavioral assays can be combined to form a Motion Index (MI), which is a quantification of the motor activity of at least about 8 zebrafish larvae in each well of a 96-well plate. As shown in the representative images of FIGS. 1A-1B, zebrafish larvae were treated with DMSO (control), VU0463271 (FIG. 1A), or pentylentetrazol or PTZ (FIG. 1B).
Treatment with increasing doses of VU0463271 induced a unique and dose-dependent profile of behavioral responses, detectable at 2.5 μM and 5 μM. […] This relatively low concentration of VU0463271 elicited a reproducible behavioral profile with altered sensitivity of the fish larvae to specific combinations of stimuli. […] The increased MI in the AVSR1 and AVSR3 assays due to VU0463271 treatment reflects a seizure-like hyperexcitability in the larval fish.
Additionally, seizures have been induced in 7 dpf zebrafish larvae using pentylentetrazol (PTZ) treatment, and motor and electroencephalographic (EEG) responses were consistent with seizure phenotypes.

[10] = system: VU0240551-induced phenotype (KCC2 inhibition) in zebrafish larvae
[11] = 10-point CRC, TT002381 to a maximum of 100 μM

Structure (SMILES)	Rescued (MES model) ([1]; 10 mg/kg)	Rescued (MES model) ([1]; 30 mg/kg)	Rescued (MES model) ([1]; 100 mg/kg)	suppression score dose response compared with other compounds as suppressor of the hyperexcitability phenotype [2]	Rescued (6 Hz model) ([3]; 100 mg/kg)	suppression of PTZ-induced hyperactivity in response to the different stimuli [4]	effect on GABAA-mediated currents [5]	firing rates of the cultured neurons [5]	spike initiation [5]	input resistant ([5]; 30 μM)	number of open channels (open at rest) ([5]; 30 μM)	inhibition of Nav1.1 [6, 11]	inhibition of Nav1.2 [7, 11]	inhibition of Nav1.6 [8, 11]	further results
CCCOc1nn(CCC)cc1C(=O)Nc1ccc(C(F)(F)F)cc1 [TT0042607, 3-propoxy-1-propyl-N-(4-(trifluoromethyl)phen-yl)-1H-pyrazole-4-carboxamide]	0/4	0/4	2/4	outperform both tiagabine and valproic acid	1/4	attenuated	neither TT0023831 nor TT0042607 appeared to have an effect	reduced the firing rates	delayed spike initiation	reduced	reduced	–	–	–	effect on the overall MI ([2]; sub-micromolar or higher concentrations (tested 0.08-2.5 μM)): no effect; rescue of VU0463271-induced behaviors ([2]; tested at 0.08-2.5 μM, already at sub-micromolar concentrations): rescued; Rescued (6 Hz model) ([3]; 10 mg/kg): 0/4; Rescued (6 Hz model) ([3]; 30 mg/kg): 0/4; upstroke and repolarization ([5]; 30 μM): slowed
CCCCNc1ccc(C(=O)OCCN(C)C)cc1 [tetracaine]	–	–	–	–	–	–	–	–	–	–	–	concentration-dependent inhibition	concentration-dependent inhibition	concentration-dependent inhibition	–
COc1cc(C)c(C(C)C)cc1S(=O)(=O)NCCN1CCOCC1 [TT0023831, 5-isopropyl-2-methoxy-4-methyl-N-(2-morpholinoethyl)benzene-sulfonamide]	0/4	2/4	2/4	outperform both tiagabine and valproic acid	3/8	did not	neither TT0023831 nor TT0042607 appeared to have an effect	reduced the firing rates	delayed spike initiation	without changing	without affecting	concentration-dependent inhibition	concentration-dependent inhibition	concentration-dependent inhibition	overall motor activity of the larvae ([2]; 80 μM, reduced the rescue score): reduced the overall motor activity; EC50 ([2]; Danio rerio, read-out: in vivo EC50): 5 µM; peak activity ([2]; concentration of peak effect, doses 2.5-320 uM, suppression of KCC2-inhibited phenotype in zebrafish): 20 µM; concentration of best phenotypic reversal ([2]; tested at 2.5-80 μM, high rescue scores): 20 µM and 40 µM; Rescued (6 Hz model) ([3]; 50 mg/kg): 0/8; Rescued (6 Hz model) ([3]; 200 mg/kg): 7/8; action potential threshold ([5]; 30 μM): raising; rheobase ([5]; 30 μM): increased
C1CCc2nnnn2CC1 [PTZ, pentylentetrazol]	–	–	–	–	–	–	–	–	–	–	–	–	–	–	activity and MI in response to multiple light and acoustic stimuli [9]: induced hyperactivity
Cc1ccc(-c2nc(N3CCOCC3)sc2C(=O)NCC2CCCO2)cc1 (stereo not drawn) [TT0011235]	–	–	–	–	–	attenuated	–	–	–	–	–	–	–	–	effect on overall MI ([10]; at concentrations higher than 20 μM): inhibitory effect; concentration of most effective phenotypic reversal ([10]; tested at 2.5-80 μM): 20 µM; rescue of VU0240551-induced behaviors ([10]; tested at 2.5-80 μM): rescued; EGABA values ([5]; perfusion of 30 μM): shifted; GABAA-mediated currents (muscimol-activated and endogenous post-synaptic potentials) ([5]; perfusion of 30 μM): potentiated
NC1=N[C@H](O)[C@H]2[C@H]3O[C@]4(O)O[C@@H]([C@@H](O)[C@@]2(N1)[C@@H]4O)[C@]3(O)CO [TTX, tetrodotoxin]	–	–	–	–	–	–	–	–	–	–	–	–	–	–	inhibition of Nav1.1 [6]: concentration-dependent inhibition; inhibition of Nav1.2 [7]: concentration-dependent inhibition; inhibition of Nav1.6 [8]: concentration-dependent inhibition
